Test results from ChEMBL document CHEMBL3997812, “The induction of oxidative stress in cervix carcinoma cells by levoglucosenone derived 4-S-salicyl derivative and (1-4)-S-thio-disaccharides. Part 4” (2017).
Activity calls are given as the source filed them. The rule behind the calls is not given here.

How the values were obtained:
[1] = system: HeLa; assay: Geno-toxicity in human HeLa cells assessed as induction of DNA damage after 1 hr by alkaline comet assay; assay type: functional, cell-based
[2] = system: HeLa; assay: Geno-toxicity in human HeLa cells assessed as induction of DNA damage by measuring increase in double stranded DNA breaks at 69 to 550 uM after 1 hr by neutral comet assay; assay type: functional, cell-based
[3] = system: HeLa; assay: Geno-toxicity in human HeLa cells assessed as induction of DNA damage by measuring increase in incomplete excision repair sites at pH 12.1 after 1 hr by comet assay; assay type: functional, cell-based
[4] = system: Escherichia coli; assay: Induction of Escherichia coli pUC19 DNA damage assessed as increase in linear DNA forms after 1 hr by agarose gel electrophoresis
[5] = system: Escherichia coli; assay: Induction of Escherichia coli pUC19 DNA damage assessed as increase in open circular DNA forms after 1 hr by agarose gel electrophoresis
[6] = system: Escherichia coli; assay: Induction of Escherichia coli pUC19 DNA damage assessed as decrease in supercoiled covalently closed circular DNA forms after 1 hr by agarose gel electrophoresis
[7] = system: HeLa; assay: Induction of DNA damage in human HeLa cells incubated for 1 hr followed by repair incubation for 120 mins by alkaline comet assay; assay type: functional, cell-based
[8] = system: HeLa; assay: Induction of DNA damage in human HeLa cells assessed as increase in DNA lessions at 37 degreeC incubation for 120 mins by alkaline comet assay relative to control; assay type: functional, cell-based
[9] = system: HeLa; assay: Induction of DNA damage in human HeLa cells assessed as increase in DNA lessions at 4 degreeC incubation for 120 mins by alkaline comet assay relative to control; assay type: functional, cell-based
[10] = system: HeLa; assay: Induction of ROS production in human HeLa cells after 1 hr by CM-H2DCFDA probe based fluorescence assay; assay type: functional, cell-based
[11] = system: HeLa; assay: Induction of nitric oxide production in human HeLa cells after 1 hr by DAF2-DA probe based fluorescence assay; assay type: functional, cell-based
[12] = system: HeLa; assay: Effect on SOD1 mRNA expression in human HeLa cells after 4 hrs by RT-PCR method relative to control; assay type: functional
[13] = system: HeLa; assay: Effect on SOD2 mRNA expression in human HeLa cells after 4 hrs by RT-PCR method relative to control; assay type: functional
[14] = system: HeLa; assay: Effect on HMOX mRNA expression in human HeLa cells after 4 hrs by RT-PCR method relative to control; assay type: functional
[15] = system: HeLa; assay: Effect on GCLM mRNA expression in human HeLa cells after 4 hrs by RT-PCR method relative to control; assay type: functional
[16] = system: HeLa; assay: Effect on TXN mRNA expression in human HeLa cells after 4 hrs by RT-PCR method relative to control; assay type: functional
[17] = system: HeLa; assay: Effect on NCOA7 mRNA expression in human HeLa cells after 4 hrs by RT-PCR method relative to control; assay type: functional
[18] = system: HeLa; assay: Effect on NQO1 mRNA expression in human HeLa cells after 4 hrs by RT-PCR method relative to control; assay type: functional
[19] = system: HeLa; assay: Effect on NOX4 mRNA expression in human HeLa cells after 4 hrs by RT-PCR method relative to control; assay type: functional
[20] = system: HeLa; assay: Effect on NOX5 mRNA expression in human HeLa cells after 4 hrs by RT-PCR method relative to control; assay type: functional
[21] = system: HeLa; assay: Effect on GPX4 mRNA expression in human HeLa cells after 4 hrs by RT-PCR method relative to control; assay type: functional
[22] = system: HeLa; assay: Upregulation of GPX1 mRNA expression in human HeLa cells after 4 hrs by RT-PCR method; assay type: functional, cell-based
[23] = system: HeLa; assay: Upregulation of CAT mRNA expression in human HeLa cells after 4 hrs by RT-PCR method; assay type: functional, cell-based
[24] = system: HeLa; assay: Induction of oxidative stress in human HeLa cells assessed as reduction in GSH level after 1 hr by MBCL probe based flow cytometry relative to control; assay type: functional
[25] = system: HeLa; assay: Induction of oxidative stress in human HeLa cells assessed as reduction in thioredoxin reductase at IC50 after 14 hrs by DTNB/bradford reagent based colorimetric method; assay type: functional; set-up: scale not given: the % may be the effect or the level left
[26] = system: HeLa; assay: Geno-toxicity in human HeLa cells assessed as induction of DNA damage by measuring increase in single strand breaks after 1 hr by comet assay; assay type: functional, cell-based
[27] = system: HeLa; assay: Induction of DNA damage in human HeLa cells after 1 hr in presence of antioxidant vitamin E by alkaline comet assay relative to control; assay type: functional, cell-based
[28] = system: HeLa; assay: Induction of DNA damage in human HeLa cells after 1 hr in presence of antioxidant epicatechin by alkaline comet assay relative to control; assay type: functional, cell-based
[29] = system: HeLa; assay: Geno-toxicity in human HeLa cells assessed as induction of DNA damage by measuring increase in double stranded DNA breaks at 17 to 137 uM after 1 hr by neutral comet assay; assay type: functional, cell-based
[30] = system: HeLa; assay: Geno-toxicity in human HeLa cells assessed as induction of DNA damage by measuring increase in double stranded DNA breaks at 5.6 to 69 uM after 1 hr by neutral comet assay; assay type: functional, cell-based

Structure (SMILES)	Activity [1]	Activity [3]	Activity [4]	Activity [5]	Activity [6]	Activity [7]	Activity [8]	Activity [9]	Activity [10]	Activity [11]	fold change (FC) [12]	fold change (FC) [13]	fold change (FC) [14]	fold change (FC) [15]	fold change (FC) [16]	fold change (FC) [17]	fold change (FC) [18]	fold change (FC) [19]	fold change (FC) [20]	fold change (FC) [21]	also measured
O=C1C[C@@H](S[C@@H]2O[C@H](CO)[C@@H](O)[C@H](O)[C@H]2O)[C@H]2CO[C@@H]1O2	Dose-dependent effect	Dose-dependent effect	inactive	inactive	inactive	inactive	Active	inactive	Active	inactive	1.16	1.25	7.29	1.95	0.94	0.35	1.27	0.68	0.34	0.56	Activity [2]: inactive; Activity [22]: Active; Activity [23]: Active; Activity [24]: Active; Activity [25]: 3.86%; Activity [26]: Dose-dependent effect; Activity [27]: inactive; Activity [28]: inactive
CC(=O)OC[C@H]1O[C@@H](S[C@@H]2CC(=O)[C@@H]3OC[C@H]2O3)[C@H](OC(C)=O)[C@@H](OC(C)=O)[C@H]1OC(C)=O	Dose-dependent effect	Dose-dependent effect	inactive	inactive	inactive	inactive	Active	inactive	Active	inactive	1.07	1.26	10.53	1.77	1.07	0.37	1.36	0.74	0.68	0.75	Activity [2]: inactive; Activity [22]: Active; Activity [23]: Active; Activity [24]: 60%; Activity [25]: 9.2%; Activity [26]: Dose-dependent effect; Activity [27]: inactive; Activity [28]: inactive
O=C(O)c1ccccc1S[C@@H]1CC(=O)[C@@H]2OC[C@H]1O2	Dose-dependent effect	Dose-dependent effect	inactive	inactive	inactive	inactive	Active	inactive	Active	inactive	1.12	1.28	3.42	1.56	0.93	0.51	1.61	1.13	0.56	0.56	Activity [29]: inactive; Activity [22]: Active; Activity [23]: Active; Activity [24]: Active; Activity [25]: 7.5%; Activity [26]: Dose-dependent effect; Activity [27]: inactive; Activity [28]: inactive
CC(=O)OC[C@H]1O[C@@H](S[C@@H]2CC(=O)[C@@H]3OC[C@H]2O3)[C@H](OC(C)=O)[C@@H](OC(C)=O)[C@@H]1OC(C)=O	Dose-dependent effect	Dose-dependent effect	inactive	inactive	inactive	inactive	Active	inactive	Active	inactive	1.18	1.56	20.29	2.21	0.76	0.43	1.34	0.58	0.53	1.15	Activity [30]: inactive; Activity [22]: Active; Activity [23]: Active; Activity [24]: 20%; Activity [25]: 18.3%; Activity [26]: Dose-dependent effect; Activity [27]: inactive; Activity [28]: inactive
